Data taken from patent US6902726B1, “Reduction of odor gases from waste using plant-derived oils” (The United States of America as represented by the …, priority 2001, dated 2005).
Converted amounts (≈) assume the structure as drawn. Like-named read-outs stand apart in the source and are kept apart here.

Legend:
Salmonella typhimurium = conditions: pure culture system; Helander et al.; cited from earlier work
stored swine waste [1] = test: VFA production from swine waste in open jars; format: cell-based
Protocol: A 15-ml waste sample was collected from each flask. The sample was mixed with 15 ml of 0.5 M H2SO4, centrifuged at 2000×g for 20 min at 4° C., and stored at −20° C. until analyzed [Varel, V. H. et al. (1999), J Anim Sci 77:1162-1168]. L-Lactate concentrations were determined with a membrane-immobilized system involving lactate oxidase (Model 27, Yellow Springs Instrument Co., Yellow Springs, Ohio, USA). Short-chain volatile fatty acids (VFAs; acetate, propionate, butyrate, valerate, isobutyrate, isovalerate) and aromatic compounds (cresol, indole, skatole, 4-ethylphenol, phenol) were determined in an aliquot from the original acidified sample. After thawing, the sample was centrifuged at 5° C., 10,000×g for 5 min. A 0.5 ml aliquot of the supernatant was combined with an internal standard, ethyl butyrate (0.25 mM final concentration), the sample was acidified with 0.4 ml of 3 M HC1, 0.8 ml ethyl ether was added, the sample was shaken vigorously for 1 min, and centrifuged at 5° C., 16,000×g for 1 min, and the ether phase was analyzed. […] Aromatic, VFAs, thymol and carvacrol were analyzed with a Hewlett Packard 6890 gas chromatograph equipped with a flame ionization detector and a Hewlett Packard 5973 mass selective detector. […] Data were analyzed as a split-plot in time with the GLM procedure of (SAS). […]

E. coli O157:H7 = conditions: cited from earlier work; for concentration that will kill E. coli O157:H7: Kim et al.; for minimum inhibitory concentration: pure culture system, Helander et al.
[2] = tested on: total culturable anaerobic bacteria; test: total culturable anaerobic bacteria in swine waste, open jars; format: cell-based; conditions: 13.3 mM and 20 mM; within 2 days versus controls (P<0.05); sustained for 28 days
Protocol: (§1) Swine waste was collected and processed into a slurry as in Example 3. As in Example 2, the slurry was added to wide-mouth (10 cm) jars (17 cm tall, 13.5 cm in diameter, 1.6-liter volume) with the test antimicrobial additives, and plastic lids were placed to cover approximately 90% of the jar opening to prevent moisture loss over the experimental period. The sampling procedure was similar to that described above in Example 3, except no stirring or mixing occurred before the contents were sampled, and treatments were in triplicate.
(§2) Fecal coliforms were enumerated with 3 M Petrifilm Escherichia coli coliform count plates (3 M Microbiology Products, St. Paul, Minn.). Both of the carvacrol treatments reduced (P<0.05) the number of viable anaerobic bacteria in the waste within 2 days when compared to the controls (Table 2). This effect was sustained for 28 days. The initial decrease in the concentrations of anaerobic bacteria from day 0 to 2 in the control is presumably because VFAs increase in this batch system and become lethal to a select population of organisms.

stored swine waste [3] = test: fermentation of stored swine waste in anoxic flasks (gas, VFA, L-lactate, pH); format: cell-based; conditions: for methane detected: 13.3 mM, after 20 days; for gas production / production of propionate / production of valerate, isovalerate, isobutyrate and cresol: carvacrol or thymol at 13.3 or 16.75 mM, or combination to equal 16.75 mM; for lactate accumulation: oil added to swine waste; for concentration required to suppress most fermentation activity: swine waste slurry, same ratio (50:35:15)
Protocol: Swine waste was processed similarly to the method described in Example 1. Fecal waste was randomly collected within 15 min of being excreted from animals fed a finishing diet of 85% corn and 11% soybean meal. Swine urine was collected from catheterized animals. Feces, urine, and distilled water in the ratio 50:35:15 were blended (Waring Inc., New Hartford, Conn.) for 1 min. Four replicate samples were obtained from this slurry and analyzed for various parameters and were considered as time 0. The waste slurry was divided into 500 ml aliquots and antimicrobial plant oils were added directly at the desired concentration, with one exception, in which carvacrol was dissolved 1:1 v:v in 95% ethanol, or 2 ml carvacrol/ethanol addition in these 500 ml slurries. The slurry was blended 1 min to provide a homogenous mixing of the antimicrobial oils and poured into 1-liter Erlenmeyer flasks, which were gassed with nitrogen (also after each sampling), sealed with a rubber stopper and left stationary at ambient temperature (25° C.). Treatments were in duplicate, and the contents of the flasks were gently swirled before being sampled at the days indicated in FIGS. 3-5. Gas volume and composition were analyzed in these flasks (anoxic slurry).
Head space gas was measured by displacement of a water-lubricated glass piston in a 50 ml syringe [Miller, T. L. et al. (1974), Appl Environ 27:985-987]. A 20-gauge needle with a Leurlok was inserted through the stopper, and a three-way valve was attached to the needle to allow gas volume to be periodically determined. Methane and hydrogen were analyzed as previously described [Varel, V. H. et al. (2000), Curr Microbiol 40:392-397].
A 15-ml waste sample was collected from each flask. The sample was mixed with 15 ml of 0.5 M H2SO4, centrifuged at 2000×g for 20 min at 4° C., and stored at −20° C. until analyzed [Varel, V. H. et al. (1999), J Anim Sci 77:1162-1168]. L-Lactate concentrations were determined with a membrane-immobilized system involving lactate oxidase (Model 27, Yellow Springs Instrument Co., Yellow Springs, Ohio, USA). Short-chain volatile fatty acids (VFAs; acetate, propionate, butyrate, valerate, isobutyrate, isovalerate) and aromatic compounds (cresol, indole, skatole, 4-ethylphenol, phenol) were determined in an aliquot from the original acidified sample. After thawing, the sample was centrifuged at 5° C., 10,000×g for 5 min. A 0.5 ml aliquot of the supernatant was combined with an internal standard, ethyl butyrate (0.25 mM final concentration), the sample was acidified with 0.4 ml of 3 M HC1, 0.8 ml ethyl ether was added, the sample was shaken vigorously for 1 min, and centrifuged at 5° C., 16,000×g for 1 min, and the ether phase was analyzed. To determine carvacrol and thymol concentrations, an aliquot of the original acidified sample which was not centrifuged, was treated as indicated above and extracted with ether twice. […] Aromatic, VFAs, thymol and carvacrol were analyzed with a Hewlett Packard 6890 gas chromatograph equipped with a flame ionization detector and a Hewlett Packard 5973 mass selective detector. Compounds were separated on a 30 m×0.32 mm diameter (0.5 μm film thickness) Innowax PEG column using the following program parameters: flow rate was 1.9 ml min^−1, initial temperature was 140° C., initial time was 3 min with a temperature ramp of 7.5° C. min^−1, with a final temperature of 230° C. for 4 min. Injector and detector temperatures were 250° C. Data were analyzed as a split-plot in time with the GLM procedure of (SAS).

stored cattle waste [4] = test: fermentation of stored cattle waste in open wide-mouthed jars (VFA, butyrate); format: cell-based; conditions: for production of short-chain volatile fatty acids: 13.3 mM individually, 56 days, versus combination of the two oils (6.7 mM each); for concentration that suppressed essentially all fermentation activity: cattle waste slurry of feces, urine and water (50:35:15)
Protocol: Waste was collected and processed as in Example 1. The waste slurry was divided into 1-liter aliquots and poured into wide-mouth (10 cm) jars (17 cm tall, 13.5 cm diameter, 1.6-liters). The plant oils (carvacrol, thymol and α-pinene) were added to the slurry without stirring or mixing. Plastic lids provided with the jars were used to cover approximately 90% of the jar opening to prevent moisture loss over the 56-day experimental period. A wide mouth pipette was inserted into the slurry from top to bottom at which time slurry contents were simultaneously withdrawn. Total VFA production and butyrate production were measured as described in Example 1.

[5] = recovery of added oil from liquid and solid fractions of swine waste, sealed flasks; format: physicochemical
Protocol: Swine waste was processed similarly to the method described in Example 1. Fecal waste was randomly collected within 15 min of being excreted from animals fed a finishing diet of 85% corn and 11% soybean meal. Swine urine was collected from catheterized animals. Feces, urine, and distilled water in the ratio 50:35:15 were blended (Waring Inc., New Hartford, Conn.) for 1 min. Four replicate samples were obtained from this slurry and analyzed for various parameters and were considered as time 0. […] Gas volume and composition were analyzed in these flasks (anoxic slurry).
A 15-ml waste sample was collected from each flask. The sample was mixed with 15 ml of 0.5 M H2SO4, centrifuged at 2000×g for 20 min at 4° C., and stored at −20° C. until analyzed [Varel, V. H. et al. (1999), J Anim Sci 77:1162-1168]. L-Lactate concentrations were determined with a membrane-immobilized system involving lactate oxidase (Model 27, Yellow Springs Instrument Co., Yellow Springs, Ohio, USA). Short-chain volatile fatty acids (VFAs; acetate, propionate, butyrate, valerate, isobutyrate, isovalerate) and aromatic compounds (cresol, indole, skatole, 4-ethylphenol, phenol) were determined in an aliquot from the original acidified sample. […] Data were analyzed as a split-plot in time with the GLM procedure of (SAS).

fecal coliforms = fecal coliforms in swine waste, open jars; format: cell-based
Protocol: as §1, §2

stored cattle waste [6] = test: VFA and L-lactate production from cattle waste in anoxic flasks, eugenol versus thymol; format: cell-based; conditions: for L-lactate production: cattle waste, eugenol at all concentrations evaluated
Protocol: Waste was collected and processed as in Example 1. The waste slurry was divided into 500-ml aliquots and eugenol or thymol were added directly at the desired concentration. The slurry was blended 1 min to provide a homogeneous mixing of the antimicrobial oils and poured into a 1-liter Erlenmeyer flask, which was sealed with a rubber stopper and left stationary at ambient temperature (25° C.). Treatments were in triplicate, and the contents of the flask were gently swirled before being sampled at the times indicated. Short-chain volatile fatty acids and L-lactate in the flasks were determined as described in Example 1. […] This is a desirable effect in some cases because it rapidly lowers the pH which contributes to inhibiting the overall fermentation of the wastes, and more ammonia nitrogen will be retained in the wastes.

SMILES	minimum inhibitory concentration (Salmonella typhimurium)	minimum inhibitory concentration (E. coli O157:H7)	methane detected (stored swine waste [3])	gas production (stored swine waste [3])	production of propionate (stored swine waste [3])	production of valerate, isovalerate, isobutyrate and cresol (stored swine waste [3])	lactate accumulation (stored swine waste [3])	concentration required to suppress most fermentation activity (stored swine waste [3])	production of short-chain volatile fatty acids (stored cattle waste [4])	concentration that suppressed essentially all fermentation activity (stored cattle waste [4])	L-lactate production (stored cattle waste [6])	further results
Cc1ccc(C(C)C)cc1O [carvacrol]	1000 µM (≈ 150 µg/mL)	3000 µM (≈ 451 µg/mL)	Trace amounts	essentially stopped most gas production	inhibited	prevented any production	accumulated	16.75 mM	equally or slightly better	13.3 mM	–	effect of dissolving in ethanol on ability to inhibit VFA production (stored swine waste [1]; dissolved in ethanol before addition (P>0.05)): no effect; production of VFAs (stored swine waste [1]; three concentrations (P<0.01), open jars): inhibited the production of VFAs; concentration that will kill E. coli O157:H7 (E. coli O157:H7): 500 µg/mL; concentration that will kill E. coli O157:H7 (E. coli O157:H7; value in brackets): 3.3 mM; number of viable anaerobic bacteria [2]: reduced; recoveries compared with thymol ([5]; sealed flasks): similar; fecal coliforms (fecal coliforms; 13.3 mM, at 14 days): none were detected; fecal coliforms (fecal coliforms; 13.3 mM, within 2 days (P<0.01)): reduced; fecal coliforms (fecal coliforms; 20 mM, after 2 days): No fecal coliforms were detected
C=CCc1ccc(O)c(OC)c1 [eugenol]	–	–	–	–	–	–	–	–	–	–	stimulates L-lactate production	control of total VFA production compared to 2000 ppm (13.3 mM) thymol (stored cattle waste [6]; 2000 or 2500 ppm (13.3 or 16 mM), 42-day period): equally or more effective; inhibition of VFA production, dependence (stored cattle waste [6]; various concentrations): concentration dependent
Cc1ccc(C(C)C)c(O)c1 [thymol]	1000 µM (≈ 150 µg/mL)	3000 µM (≈ 451 µg/mL)	Trace amounts	essentially stopped most gas production	inhibited	prevented any production	accumulated	16.75 mM	equally or slightly better	13.3 mM	inhibits production of L-lactate	thymol recovered from the liquid or supernatant fraction ([5]; % of added, swine waste): less than 25%
